Tested on: HCT116 cells
Assay: Cell viability, Alamar Blue assay, HCT116
Assay type: cell-based, human
Conditions: 72 h

For `N#Cc1c2c(cc3c1C(=O)N[C@@H]1C3=C[C@H](O)[C@@H](O)[C@H]1O)OCO2` [compound 46, 7cyanolycoricidine], the “activity compared to lycoricidine (3)” value was “increased activity”.

Source: publication PMC6488038 (Journal of the American Chemical Society, 2018)
